Experimental data published in PubChem BioAssay AID179 (DTP/NCI, 2004).
Active and inactive are the calls of the source.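 How the source made its calls: active means compounds giving half or more protection of infected cells from virus-caused growth loss, again on retest; inactive means the rest.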 Where a SMILES comes first, the peptide text is derived from it. The star is where a group is joined. Trt = c1ccc(C(c2ccccc2)(c2ccccc2)*)cc1; Benzhydryl = c1ccc(C(c2ccccc2)*)cc1; Cbz = O=C(OCc1ccccc1)*; OtBu = CC(C)(C)O*

Tested on: CEM cells HIV-1 protection, formazan growth assay
Experiment: NCI AIDS Antiviral Assay
Details: for IC50: measured here: growth of uninfected CEM cells
In short: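 Protection of CEM cells against HIV-1 was scored from cell growth (soluble formazan) across five concentrations, with parallel uninfected cells. Lack of protection may reflect toxicity.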

SMILES | EC50 [µM] | IC50 [µM] | outcome
CC(C)(C)n1c(=O)[nH]n(C2NN=Cc3cccc4cccc2c34)c1=O (configuration not stated) | > 200 | 24 | 
O=[N+]([O-])/C(Cl)=C/C(=C1/Nc2ccccc2O1)[N+](=O)[O-] | > 200 | 30.2 | 
NC(CCOCCP(=O)(O)CCOCCC(N)C(=O)O)C(=O)O (configuration not stated) | > 200 | > 200 | 
COC(=O)C1=CCC(n2cnc3c(Cl)nc(N)nc32)CC1 (configuration not stated) | > 115 | 47.9 | 
COc1ccc(OC)c(/C=C(\C#N)c2ccc([N+](=O)[O-])cc2)c1 | > 200 | > 200 | 
O=C1c2ccccc2CCC1(Br)Cc1ccccc1 (configuration not stated) | > 200 | 20.4 | 
CCOC(=O)c1cc2c3c(c(C(C)=O)c(OC)c2[nH]1)N(C(=O)CC)CC3 | > 200 | 16.2 | 
O=c1c(-c2ccccc2)nnc2n(Cc3ccccc3)c3ccccc3n12 | > 200 | 112 | 
Cc1cccc(C(C)(C)C)c1NC(=O)CC1Sc2ccccc2NC1=O (configuration not stated) | > 51.3 | > 51.3 | 
Nc1ncnc2c1ncn2C1CC(OCc2ccccc2[N+](=O)[O-])C(CO)O1 (configuration not stated) | > 50.1 | 36.3 | 
CCOC(=O)/C(=C\c1ccc(F)cc1)[Se]c1ccccc1 | > 38.9 | > 38.9 | 
CC(=O)OCC12CCC(C)=CC1OC1C3(O)N=C(C)OC3C2(C)C12CO2 (configuration not stated) | > 200 | 0.0661 | 
CC1(C)C(=O)C2(C#N)CCC1C2 (configuration not stated) | > 200 | > 200 | 
Cc1nc(Cc2n[nH]c(C)n2)n[nH]1 | > 200 | > 200 | 
COc1cccc(C(NC2=NCCC=N2)c2cc3c(cc2O)OCO3)c1O (configuration not stated) | > 200 | 35.5 | 
Cn1c(=O)cc(C=Nc2ccc(S(N)(=O)=O)cc2)c2ccccc21 | > 200 | 1.51 | 
CC1=N/C(=C\c2ccco2)C(=O)O1 | > 537 | > 537 | 
Nc1ccc2c(c1)nc1n2C(c2c(F)cccc2F)SC1 (configuration not stated) | > 200 | 135 | 
Cc1ccc([N+](=O)[O-])cc1N=NC(=O)NNc1cc([N+](=O)[O-])ccc1C | > 200 | 32.4 | 
CCc1nn(Cc2ccccc2)c2nc(C)c(CCc3ccccc3)c(Cl)c12 | > 200 | > 200 | 
CC12CCCCC1C(=O)C2(Cl)Cl (configuration not stated) |  |  | inactive
Cc1nc2sc(CCl)nn2c(=O)c1Cl | > 200 | 3.98 | 

SMILES | EC50 [µM] | IC50 [µM] | outcome
Cc1nc2c(O)cc(Br)c(O)c2nc1C |  |  | inactive
O=C(N/C(=C\c1ccc(F)cc1)c1nc2ccccc2[nH]1)c1ccccc1 | > 191 | > 191 | 
COC1(OC)CC2C(=O)CCCC21OC (configuration not stated) | > 603 | > 603 | 
S=C1NCCN1C(=S)Nc1ccccc1 | > 141 | > 141 | 
CC1(C)N=C(C(N)=O)c2ncn(CCCO)c2N1 | > 200 | > 200 | 
[N-]=[N+]=NCC(O)Cn1cnc2c(NC(=O)c3ccccc3)ncnc21 (configuration not stated) | > 741 | 427 | 
O=[N+]([O-])c1ccc(S(=O)(=O)NN2CCOCC2)cc1 | > 126 | > 126 | 
O=C1CC(c2cccc(Br)c2)n2cccc21 (configuration not stated) |  |  | inactive
Cc1ccc(/C=C(\C#N)C(=O)c2ccccc2)cc1 | > 145 | 102 | 
C#CCC(O)c1ccc(OC)c(OCc2ccccc2)c1 (configuration not stated) | > 200 | 69.2 | 
Cc1ccccc1N(CCC#N)C1=NN(C(=O)CC(=O)Nc2ccccc2)C(c2ccccc2)C1 (configuration not stated) | > 77.6 | > 77.6 | 
Cc1ccccc1-n1c2nc(=O)n(C)c(=O)c-2nc2ccccc21 |  |  | inactive
CNc1nnc(CNc2ccc(-c3nnc(NC)n3N)cc2)n1N | > 200 | > 200 | 
COC(=O)[C@@]12CCCC(=O)[C@@H]1[C@H]1CCC[C@H]12 | 112 | > 200 | 
Cc1ccccc1NC(=O)CSc1nnc(-c2ccc(N=Cc3ccc(Cl)cc3)cc2)o1 | > 389 | 5.62 | 
CC(C)(C)OC(=O)CNC(=O)C(Cc1ccccc1)NC(=O)C(CSC(c1ccccc1)(c1ccccc1)c1ccccc1)NC(=O)CNC(=O)C(Cc1ccccc1)NC(=O)CNC(=O)C(CSC(c1ccccc1)c1ccccc1)NC(=O)C(CSC(c1ccccc1)(c1ccccc1)c1ccccc1)NC(=O)OCc1ccccc1 (configuration not stated) (Cbz-C(Trt)C(Benzhydryl)GFGC(Trt)FG-OtBu; configuration not given here) | > 8.32 | > 8.32 | 
CC(=O)Nc1oc(C)c(C)c1S(=O)(=O)c1ccc(Cl)cc1 | > 200 | 107 | 
CC1(C)OCC(C2OC(N3O[C@H](CI)C[C@@H]3c3ccccc3)C3OC(C)(C)OC23)O1 (some centres not stated) | 138 | > 200 | 
CC1S/C(=N\N=C\c2ccc(Cl)cc2)N=C1c1c(O)c2ccccc2oc1=O (configuration not stated) | > 200 | 36.3 | 
O=C1NC(=Nc2ccccc2)C(=Nc2ccccc2)N1c1ccccc1 | > 200 | 14.8 | 
CCCCCCCCC[C@@H]1C[C@H](O)[C@H](Cc2ccccc2)N1C(=O)OC(C)(C)C | > 200 | 35.5 | 
CC(C)[Si]1(C(C)C)OCC2OC(N3C(=O)NC(=O)C[C@@H]3C(O)c3ccccc3)CC2O[Si](C(C)C)(C(C)C)O1 (some centres not stated) | > 200 | 10.5 | 

SMILES | EC50 [µM] | IC50 [µM] | outcome
N#CC12Cc3cc4c(cc3-c3cccc(c31)CCN2C(=O)c1ccccc1)OCO4 (configuration not stated) |  |  | inactive
CC(O)CC[P+](c1ccccc1)(c1ccccc1)c1ccccc1 (configuration not stated) | > 200 | 4.27 | 
[CH3][Sn]1([CH3])[O]C(=O)CCN=Cc2c(ccc3ccccc23)[O][Sn]([CH3])([CH3])[O]C(=O)CCN=Cc2c(ccc3ccccc23)[O]1 | > 200 | 20 | 
C=CCC1(C2=C(C)C(=O)c3ccccc32)CCCS1 (configuration not stated) | > 200 | 31.6 | 
CC1(C)CC23C(=O)N(c4ccccc4)C(=Nc4ccccc4)NC2=CC(C#N)=C(C#N)C3O1 (configuration not stated) | > 12 | > 12 | 
c1ccc2[nH]c(-c3cscn3)nc2c1 | > 200 | > 200 | 
COc1ccc2c(c1)CC1=C(O2)c2ccc(OC)cc2OC1 | > 200 | 10.2 | 
Cc1cccc(NC(=O)C(=O)C(C(=O)c2ccccc2F)C2OC(=O)c3ccccc32)c1Cl (configuration not stated) | > 204 | 12 | 
Cc1nc2ccccc2cc1C[N+]12CN3CN(CN(C3)C1)C2 |  |  | inactive
CNC(=O)OC(C)CN1c2ccccc2Sc2ccccc21 (configuration not stated) | > 200 | 41.7 | 
CCOC(=O)NC(Nc1ccc(F)cc1)(C(=O)OCC)C(F)(F)F (configuration not stated) |  |  | inactive
CC1=C(C(=O)CC(=O)C(=O)NC2C3CC4CC(C3)CC2C4)Sc2ccccc2N1 (configuration not stated) | > 9.12 | > 9.12 | 
CCOP(=O)(OCC)Oc1c(OC)c2[nH]c(C(=O)OC)cc2c2c(C(=O)O)c[nH]c12 | > 200 | > 200 | 
Cc1n(Cc2ccccc2)c2c([n+]1C)C(=O)c1ccccc1C2=O | > 562 | 0.178 | 
N[C@@H]1C(CO)NC[C@@H]1CO (some centres not stated) | > 200 | > 200 | 
CCCCn1[nH]c(=O)ccc1=O | > 1480 | 1410 | 
Cn1c(=O)c2nsnc2n(C)c1=O | > 661 | > 661 | 
O=C(Nc1ccc(Cl)cc1Cl)C1C(=O)N(c2ccc(Cl)cc2Cl)C(=O)/C1=N\Nc1ccc([N+](=O)[O-])cc1[N+](=O)[O-] (configuration not stated) | > 1.66 | > 1.66 | 
COc1ccccc1C1SC(c2ccccc2)(c2ccccc2)OC1=O (configuration not stated) | > 3.98 | > 3.98 | 
c1ccc(N2N=NC3C4CC(C5c6ccccc6C45)C32)cc1 (configuration not stated) |  |  | inactive
COc1ccc(-c2nnc(CCCCCCCCc3nnc(-c4ccc(OC)cc4)n3N)n2N)cc1 | > 200 | > 200 | 
Cc1cn(C2OCC(CO)C2F)c(=O)[nH]c1=O (configuration not stated) | > 200 | > 200 | 

SMILES | EC50 [µM] | IC50 [µM] | outcome
O=C1C=CC[C@H]2O[C@@H](COC(=O)Cc3ccccc3)C[C@H]2O1 | > 200 | 34.7 | 
O=C(O)CCSCc1cc(C(=O)Nc2ccc(/C=C/c3ccc(NC(=O)c4cc(CSCCC(=O)O)c5cccnc5c4O)cc3S(=O)(=O)O)c(S(=O)(=O)O)c2)c(O)c2ncccc12 | 1.51 | 33.9 | 
CC(C)c1cc(C(C)C)c(S(=O)(=O)N=[N+]=[N-])c(C(C)C)c1 | > 17 | > 17 | 
CC1C(=O)N=C2C(=CN(Cc3ccccc3)c3ccccc32)C(=O)N1C (configuration not stated) |  |  | inactive
CN1C(=O)CN2CCc3ccccc3C2c2cc(Cl)ccc21 (configuration not stated) | > 200 | 129 | 
CC(C)N(CCn1c2c3ccccc3ccc2c2oc(=O)c3ccccc3c21)C(C)C | > 22.4 | > 22.4 | 
COC1CCC2=CCC3C(=O)N(c4ccccc4)C(=O)C3C21 (configuration not stated) | > 603 | > 603 | 
CCOc1cccc2cccnc12 | > 200 | > 200 | 
CCOP(=O)(OCC)/C(C#N)=C/c1c(C)[nH]c2ccccc12 | > 200 | 158 | 
CCOC(=O)/C(=C/c1cccc(OC)c1)N(CC)CC | > 182 | > 182 | 
O=c1c(SCc2ccccc2)c(SCc2ccccc2)cnn1-c1ccccc1 | > 24 |  | 
O=C1CC2(C(=O)O1)C1C(=O)OC(=O)C1C1C=CC=NN12 (configuration not stated) | > 200 | > 200 | 
COc1ccc(-c2c(C)c(C)nc(Cl)c2C#N)c(OCc2ccccc2)c1OC |  |  | inactive
COc1ccc(/C=C/COC(C)=O)cc1OC |  |  | inactive
CCN(CC)CC(=O)Nc1ccc(Cc2ccc(NC(=O)CN(CC)CC)cc2)cc1 | > 200 | 16.2 | 
Cc1ccsc1/C=N/Nc1ccc2ccccc2n1 | > 200 | 18.6 | 
O=c1[nH]c2ncsc2c(=O)n1O | > 200 | 5.01 | 
CC(C)CCCC(C)C1CCC2C3CCC(=O)C(C)(CCCNCCO)C3CCC12C (configuration not stated) | > 20 | 2.88 | 
COc1cc(OC)c(/C=C2\N=C(C)N(Nc3nnc(NN4C(=O)/C(=C/c5c(OC)cc(OC)cc5OC)N=C4C)c4ccccc34)C2=O)c(OC)c1 |  |  | inactive
O=C1C2C=CC(C3C=CC2N(Cc2ccccc2)C3=O)N1Cc1ccccc1 |  |  | inactive
O=C1NC(S(=O)(=O)O)=NNC12c1ccccc1-c1ccccc12 | > 200 | 107 | 
COC(OC)[C@@H]1OC[C@@H](O)[C@@H]1n1cnc2c(N)ncnc21 | > 200 | > 200 | 
